Data reported in ChEMBL document CHEMBL1201862, “PubChem BioAssay data set” (2004).
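How tested: cells in 96-well plates exposed to compound for 48 hours at five concentrations. GI50 is the concentration that inhibits growth by half.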 Activity calls are given as the source filed them. Rule as the data show it: active = GI50 up to about 1.1 µM and inactive = higher.

Experiments:
Assay in all cases: NCI-60 cell line screen, 48 h
TK-10 = test system: TK-10
HOP-62 = test system: HOP-62
SK-MEL-2 = test system: SK-MEL-2
MDA-MB-231 = test system: MDA-MB-231
M14 = test system: M14
KM12 = test system: KM12
NCI-H226 = test system: NCI-H226
SN12C = test system: SN12C
OVCAR-8 = test system: OVCAR-8
IGROV-1 = test system: IGROV-1
HL-60 = test system: HL-60
K562 = test system: K562
CAKI-1 = test system: CAKI-1
SK-MEL-28 = test system: SK-MEL-28
Hs-578T = test system: Hs-578T
NCI/ADR-RES = test system: NCI/ADR-RES
MDA-N = test system: MDA-N
SR = test system: SR
SF-268 = test system: SF-268
UACC-62 = test system: UACC-62

| SMILES | GI50 (TK-10) | GI50 (HOP-62) | GI50 (SK-MEL-2) | GI50 (MDA-MB-231) | GI50 (M14) | GI50 (KM12) | GI50 (NCI-H226) | GI50 (SN12C) | GI50 (OVCAR-8) | GI50 (IGROV-1) | GI50 (HL-60) | GI50 (K562) | GI50 (CAKI-1) | GI50 (SK-MEL-28) | GI50 (Hs-578T) | GI50 (NCI/ADR-RES) | GI50 (MDA-N) | GI50 (SR) | GI50 (SF-268) | GI50 (UACC-62) |
| --- | --- | --- | --- | --- | --- | --- | --- | --- | --- | --- | --- | --- | --- | --- | --- | --- | --- | --- | --- | --- |
| O=C1C(c2c(O)[nH]c3ccc(S(=O)(=O)O)cc23)=Nc2ccccc21 | > 100 µM (inactive) | > 100 µM (inactive) | > 100 µM (inactive) | > 100 µM (inactive) | > 100 µM (inactive) | > 100 µM (inactive) | > 100 µM (inactive) | > 100 µM (inactive) | > 100 µM (inactive) | > 100 µM (inactive) | > 100 µM (inactive) | > 100 µM (inactive) | > 100 µM (inactive) | > 100 µM (inactive) | > 100 µM (inactive) | > 100 µM (inactive) | > 100 µM (inactive) | > 100 µM (inactive) | > 100 µM (inactive) | > 100 µM (inactive) |
| O=C(CCC1CCCCN1)Nc1ccc2c(c1)C(=O)c1ccc(NC(=O)CCN3CCCCC3)cc1C2=O (stereo not given) | 1.22 µM (inactive) | 9.29 µM (inactive) | 1.37 µM (inactive) | > 10 µM (inactive) | 1.32 µM (inactive) | 2.33 µM (inactive) | 4.66 µM (inactive) | 1.91 µM (inactive) | 2.37 µM (inactive) | 6.82 µM (inactive) | 5.77 µM (inactive) | 1.83 µM (inactive) | 2.11 µM (inactive) | 1.7 µM (inactive) | > 10 µM (inactive) | > 10 µM (inactive) | > 10 µM (inactive) | 0.493 µM (active) | 3.3 µM (inactive) | 1.22 µM (inactive) |
| Cc1c(C)c(S(=O)(=O)N(CCCCCCN)OCCCN)c(C)c2c1OC(C)(C)CC2 | 14.3 µM (inactive) | 4.36 µM (inactive) | 2.42 µM (inactive) | 3.56 µM (inactive) | 17.8 µM (inactive) | 1.91 µM (inactive) | 5.37 µM (inactive) | 13 µM (inactive) | 8.17 µM (inactive) | 2 µM (inactive) | 1.22 µM (inactive) | 4.53 µM (inactive) | 15.8 µM (inactive) | 17.6 µM (inactive) | 3.72 µM (inactive) | 15.5 µM (inactive) | 2.81 µM (inactive) | 5.92 µM (inactive) | 6.93 µM (inactive) | 11.4 µM (inactive) |
| O=C1C(Cl)C(c2cc3cc(Br)ccc3nc2Cl)N1c1ccc(Cl)cc1 (stereo not given) | 5.24 µM (inactive) | 9.68 µM (inactive) | 4.37 µM (inactive) | 3.9 µM (inactive) | 5.85 µM (inactive) | 8.97 µM (inactive) | 4.26 µM (inactive) | 4.45 µM (inactive) | 5.9 µM (inactive) | 3.02 µM (inactive) | 6.95 µM (inactive) | 5.81 µM (inactive) | 4.43 µM (inactive) | 11.1 µM (inactive) | 9.2 µM (inactive) | 5.75 µM (inactive) | 5.53 µM (inactive) | 1.64 µM (inactive) | 4.51 µM (inactive) | 4.22 µM (inactive) |
| CN(N=O)C(=O)NNC(=O)N(C)N=O | > 100 µM (inactive) | > 100 µM (inactive) | 73.3 µM (inactive) | > 100 µM (inactive) | 93.5 µM (inactive) | > 100 µM (inactive) | > 100 µM (inactive) | > 100 µM (inactive) | 55.3 µM (inactive) | 65.8 µM (inactive) | 31.6 µM (inactive) | 66.1 µM (inactive) | > 100 µM (inactive) | > 100 µM (inactive) | > 100 µM (inactive) | > 100 µM (inactive) | > 100 µM (inactive) | 8.81 µM (inactive) | 38.9 µM (inactive) | 92.5 µM (inactive) |
| C=C(C(=O)OC)c1cc2ccccc2n1S(=O)(=O)c1ccccc1 | 1.57 µM (inactive) | 3.43 µM (inactive) | 2.53 µM (inactive) | 1.98 µM (inactive) | 2.67 µM (inactive) | 2.04 µM (inactive) | 2.36 µM (inactive) | 2.67 µM (inactive) | 2.44 µM (inactive) | 1.55 µM (inactive) | 1.87 µM (inactive) | 2.34 µM (inactive) | 0.82 µM (active) | 2.38 µM (inactive) | 4.11 µM (inactive) | 3.37 µM (inactive) | 2.7 µM (inactive) | 0.815 µM (active) | 1.84 µM (inactive) | 4.52 µM (inactive) |
| NNC(=O)C(O)C(O)C(O)CO (stereo not given) | > 100 µM (inactive) | > 100 µM (inactive) | > 100 µM (inactive) | > 100 µM (inactive) | > 100 µM (inactive) | > 100 µM (inactive) | > 100 µM (inactive) | > 100 µM (inactive) | > 100 µM (inactive) | > 100 µM (inactive) | > 100 µM (inactive) | > 100 µM (inactive) | > 100 µM (inactive) | > 100 µM (inactive) | > 100 µM (inactive) | > 100 µM (inactive) | > 100 µM (inactive) | 67.8 µM (inactive) | > 100 µM (inactive) | > 100 µM (inactive) |
| O=C1OC(c2ccccc2)=N/C1=C\c1ccc(Cl)cc1 | > 100 µM (inactive) | > 100 µM (inactive) | > 100 µM (inactive) | > 100 µM (inactive) | > 100 µM (inactive) | > 100 µM (inactive) | > 100 µM (inactive) | > 100 µM (inactive) | > 100 µM (inactive) | > 100 µM (inactive) | > 100 µM (inactive) | > 100 µM (inactive) | > 100 µM (inactive) | > 100 µM (inactive) | > 100 µM (inactive) | 66.2 µM (inactive) | > 100 µM (inactive) | > 100 µM (inactive) | > 100 µM (inactive) | > 100 µM (inactive) |
| COCN1C(N)=C(C(=O)OC(C)(C)C)C2=CC(=O)C=CC21C (stereo not given) | 13.4 µM (inactive) | 28.4 µM (inactive) | 17.3 µM (inactive) | 15.3 µM (inactive) | 15.8 µM (inactive) | 16.6 µM (inactive) | 16.8 µM (inactive) | 25.8 µM (inactive) | 18 µM (inactive) | 13.1 µM (inactive) | 14.4 µM (inactive) | 4.92 µM (inactive) | 15.2 µM (inactive) | 20.3 µM (inactive) | 15.2 µM (inactive) | 25.2 µM (inactive) | 16.1 µM (inactive) | 12.5 µM (inactive) | 15.8 µM (inactive) | 15.6 µM (inactive) |
| CSCCC(C(=O)O)N(C)C (stereo not given) | > 100 µM (inactive) | > 100 µM (inactive) | > 100 µM (inactive) | > 100 µM (inactive) | > 100 µM (inactive) | > 100 µM (inactive) | > 100 µM (inactive) | > 100 µM (inactive) | > 100 µM (inactive) | > 100 µM (inactive) | > 100 µM (inactive) | 41.9 µM (inactive) | > 100 µM (inactive) | > 100 µM (inactive) | > 100 µM (inactive) | > 100 µM (inactive) | > 100 µM (inactive) | > 100 µM (inactive) | > 100 µM (inactive) | > 100 µM (inactive) |
| O=C(O)C1=C(C(=O)O)N(c2ccncc2)C(c2ccco2)=CC1c1ccccc1[N+](=O)[O-] (stereo not given) | 6.01 µM (inactive) | 13.4 µM (inactive) | 17.8 µM (inactive) | 14.2 µM (inactive) | 7.01 µM (inactive) | 1.62 µM (inactive) | 9.59 µM (inactive) | 13.1 µM (inactive) | 16.7 µM (inactive) | 1.85 µM (inactive) | 2.88 µM (inactive) | 2.85 µM (inactive) | 15.5 µM (inactive) | 16.2 µM (inactive) | 16.7 µM (inactive) | 22.6 µM (inactive) | 5.56 µM (inactive) | 2.03 µM (inactive) | 13.1 µM (inactive) | 15.3 µM (inactive) |
| CC(O)(C(=O)N(O)c1ccc(Cl)cc1)c1ccc(Cl)cc1 (stereo not given) | 29.7 µM (inactive) | 26.7 µM (inactive) | 22.2 µM (inactive) | 22.8 µM (inactive) | 34 µM (inactive) | 12.8 µM (inactive) | 40.6 µM (inactive) | 37.4 µM (inactive) | 27.2 µM (inactive) | 19.9 µM (inactive) | 14.7 µM (inactive) | 17.3 µM (inactive) | 23.9 µM (inactive) | 33.3 µM (inactive) | 16.9 µM (inactive) | 25.6 µM (inactive) | 41.1 µM (inactive) | 13.8 µM (inactive) | 23.7 µM (inactive) | 31.9 µM (inactive) |
| COc1ccc2c(=O)c3ccoc3n(CC=C(C)C)c2c1 [ACROPHYLLINE] | > 100 µM (inactive) | > 79.1 µM (inactive) | 81.7 µM (inactive) | 72.9 µM (inactive) | 64.4 µM (inactive) | 45.9 µM (inactive) | > 87.9 µM (inactive) | > 100 µM (inactive) | 39.5 µM (inactive) | 74.5 µM (inactive) | 23.6 µM (inactive) | 48.9 µM (inactive) | 2.99 µM (inactive) | 60.5 µM (inactive) | 31.3 µM (inactive) | 18.8 µM (inactive) | 73.8 µM (inactive) | 31 µM (inactive) | 78.2 µM (inactive) | 48.4 µM (inactive) |
